Laboratory results taken from ChEMBL document CHEMBL2203015, “Synthesis and biological evaluation of 5-aryloxypyrazole derivatives bearing a rhodanine-3-aromatic acid as potential antimicrobial agents” (Bioorg Med Chem Lett, 2012).
Values after ≈ are worked out from the molar mass of the structure shown.

Columns and labels:
Type in all cases: functional
Staphylococcus aureus [1] = experiment: Antibacterial activity against quinolone-resistant Staphylococcus aureus CCARM 3519 incubated for 24 hrs serial dilution method; details: CCARM 3519, 24 h
Staphylococcus aureus [2] = experiment: Antibacterial activity against quinolone-resistant Staphylococcus aureus CCARM 3505 incubated for 24 hrs serial dilution method; details: CCARM 3505, 24 h
Staphylococcus aureus [3] = experiment: Antibacterial activity against multidrug-resistant Staphylococcus aureus CCARM 3506 incubated for 24 hrs serial dilution method; details: CCARM 3506, 24 h
Staphylococcus aureus [4] = experiment: Antibacterial activity against Staphylococcus aureus RN 4220 incubated for 24 hrs serial dilution method; details: RN 4220, 24 h
Escherichia coli = experiment: Antibacterial activity against Escherichia coli 1356 incubated for 24 hrs serial dilution method; details: Escherichia coli, 1356, 24 h
Staphylococcus aureus [5] = experiment: Antibacterial activity against Staphylococcus aureus KCTC 503 incubated for 24 hrs serial dilution method; details: KCTC 503, 24 h
Staphylococcus aureus [6] = experiment: Antibacterial activity against multidrug-resistant Staphylococcus aureus CCARM 3167 incubated for 24 hrs serial dilution method; details: CCARM 3167, 24 h
Staphylococcus aureus [7] = experiment: Antibacterial activity against Staphylococcus aureus KCTC 209 incubated for 24 hrs serial dilution method; details: KCTC 209, 24 h

Row | SMILES | MIC (Staphylococcus aureus [1]) [µg/mL] | MIC (Staphylococcus aureus [2]) [µg/mL] | MIC (Staphylococcus aureus [3]) [µg/mL] | MIC (Staphylococcus aureus [4]) [µg/mL] | MIC (Escherichia coli) [µg/mL] | MIC (Staphylococcus aureus [5]) [µg/mL] | MIC (Staphylococcus aureus [6]) [µg/mL] | MIC (Staphylococcus aureus [7]) [µg/mL]
1 | Cc1nn(-c2ccccc2)c(Oc2c(Cl)cccc2Cl)c1/C=C1\SC(=S)N([C@@H](Cc2c[nH]c3ccccc23)C(=O)O)C1=O | 4 (≈ 6.16 µM) | 4 (≈ 6.16 µM) | 4 (≈ 6.16 µM) | 4 (≈ 6.16 µM) | > 64 | > 64 | 4 (≈ 6.16 µM) | > 64
2 | COc1ccccc1Oc1c(/C=C2\SC(=S)N([C@@H](Cc3ccc(O)cc3)C(=O)O)C2=O)c(C)nn1-c1ccccc1 |  |  |  | > 32 | > 64 | > 64 |  | > 64
3 | Cc1nn(-c2ccccc2)c(Oc2ccc3ccccc3c2)c1/C=C1\SC(=S)N([C@@H](Cc2ccc(O)cc2)C(=O)O)C1=O | 8 (≈ 13.2 µM) | 8 (≈ 13.2 µM) | 8 (≈ 13.2 µM) | 8 (≈ 13.2 µM) | > 64 | > 64 | 8 (≈ 13.2 µM) | > 64
4 | Cc1cccc(Oc2c(/C=C3\SC(=S)N([C@@H](Cc4ccc(O)cc4)C(=O)O)C3=O)c(C)nn2-c2ccccc2)c1 | 16 (≈ 28 µM) | 16 (≈ 28 µM) | 8 (≈ 14 µM) | 16 (≈ 28 µM) | > 64 | > 64 | 16 (≈ 28 µM) | > 64
5 | Cc1cccc(Oc2c(/C=C3\SC(=S)N([C@@H](Cc4c[nH]c5ccccc45)C(=O)O)C3=O)c(C)nn2-c2ccccc2)c1 | 8 (≈ 13.5 µM) | 8 (≈ 13.5 µM) | 4 (≈ 6.73 µM) | 4 (≈ 6.73 µM) | > 64 | > 64 | 4 (≈ 6.73 µM) | > 64
6 | Cc1nn(-c2ccccc2)c(Oc2cccc(C(F)(F)F)c2)c1/C=C1\SC(=S)N([C@@H](Cc2c[nH]c3ccccc23)C(=O)O)C1=O | 8 (≈ 12.3 µM) | 4 (≈ 6.17 µM) | 4 (≈ 6.17 µM) | 4 (≈ 6.17 µM) | > 64 | > 64 | 4 (≈ 6.17 µM) | > 64
7 | Cc1nn(-c2ccccc2)c(Oc2ccc(F)cc2)c1/C=C1\SC(=S)N([C@@H](Cc2c[nH]c3ccccc23)C(=O)O)C1=O | 8 (≈ 13.4 µM) | 8 (≈ 13.4 µM) | 4 (≈ 6.68 µM) | 8 (≈ 13.4 µM) | > 64 | > 64 | 4 (≈ 6.68 µM) | > 64
8 | Cc1nn(-c2ccccc2)c(Oc2cccc(C(F)(F)F)c2)c1/C=C1\SC(=S)N([C@@H](Cc2ccc(O)cc2)C(=O)O)C1=O | 32 (≈ 51.1 µM) | 32 (≈ 51.1 µM) | 16 (≈ 25.6 µM) | 16 (≈ 25.6 µM) | > 64 | > 64 | 16 (≈ 25.6 µM) | > 64
9 | Cc1ccc(Oc2c(/C=C3\SC(=S)N([C@@H](Cc4ccc(O)cc4)C(=O)O)C3=O)c(C)nn2-c2ccccc2)cc1 | 16 (≈ 28 µM) | 16 (≈ 28 µM) | 8 (≈ 14 µM) | 16 (≈ 28 µM) | > 64 | > 64 | 8 (≈ 14 µM) | > 64
10 | Cc1nn(-c2ccccc2)c(Oc2ccc(Br)cc2)c1/C=C1\SC(=S)N([C@@H](Cc2ccc(O)cc2)C(=O)O)C1=O | 8 (≈ 12.6 µM) | 8 (≈ 12.6 µM) | 8 (≈ 12.6 µM) | 8 (≈ 12.6 µM) | > 64 | > 64 | 8 (≈ 12.6 µM) | > 64
11 | Cc1ccccc1Oc1c(/C=C2\SC(=S)N([C@@H](Cc3ccc(O)cc3)C(=O)O)C2=O)c(C)nn1-c1ccccc1 | 32 (≈ 56 µM) | 32 (≈ 56 µM) | 16 (≈ 28 µM) | 16 (≈ 28 µM) | > 64 | > 64 | 16 (≈ 28 µM) | > 64
12 | Cc1ccc(Oc2c(/C=C3\SC(=S)N([C@@H](Cc4c[nH]c5ccccc45)C(=O)O)C3=O)c(C)nn2-c2ccccc2)cc1 | 4 (≈ 6.73 µM) | 4 (≈ 6.73 µM) | 2 (≈ 3.36 µM) | 4 (≈ 6.73 µM) | > 64 | > 64 | 2 (≈ 3.36 µM) | > 64
13 | Cc1nn(-c2ccccc2)c(Oc2ccc(Cl)cc2)c1/C=C1\SC(=S)N([C@@H](Cc2ccc(O)cc2)C(=O)O)C1=O | 8 (≈ 13.5 µM) | 16 (≈ 27 µM) | 8 (≈ 13.5 µM) | 16 (≈ 27 µM) | > 64 | > 64 | 16 (≈ 27 µM) | > 64
14 | Cc1nn(-c2ccccc2)c(Oc2ccccc2)c1/C=C1\SC(=S)N([C@@H](Cc2c[nH]c3ccccc23)C(=O)O)C1=O | 8 (≈ 13.8 µM) | 8 (≈ 13.8 µM) | 8 (≈ 13.8 µM) | 8 (≈ 13.8 µM) | > 64 | > 64 | 8 (≈ 13.8 µM) | > 64
15 | Cc1ccc(Oc2c(/C=C3\SC(=S)N([C@@H](Cc4ccc(O)cc4)C(=O)O)C3=O)c(C)nn2-c2ccccc2)c(C)c1 | 8 (≈ 13.7 µM) | 8 (≈ 13.7 µM) | 8 (≈ 13.7 µM) | 8 (≈ 13.7 µM) | > 64 | > 64 | 8 (≈ 13.7 µM) | > 64
16 | Cc1nn(-c2ccccc2)c(Oc2cccc(Cl)c2)c1/C=C1\SC(=S)N([C@@H](Cc2ccc(O)cc2)C(=O)O)C1=O | 16 (≈ 27 µM) | 32 (≈ 54 µM) | 16 (≈ 27 µM) | 16 (≈ 27 µM) | > 64 | > 64 | 8 (≈ 13.5 µM) | > 64

Row | SMILES | MIC (Staphylococcus aureus [1]) [µg/mL] | MIC (Staphylococcus aureus [2]) [µg/mL] | MIC (Staphylococcus aureus [3]) [µg/mL] | MIC (Staphylococcus aureus [4]) [µg/mL] | MIC (Escherichia coli) [µg/mL] | MIC (Staphylococcus aureus [5]) [µg/mL] | MIC (Staphylococcus aureus [6]) [µg/mL] | MIC (Staphylococcus aureus [7]) [µg/mL]
17 | Cc1nn(-c2ccccc2)c(Oc2ccccc2Cl)c1/C=C1\SC(=S)N([C@@H](Cc2c[nH]c3ccccc23)C(=O)O)C1=O | 4 (≈ 6.5 µM) | 4 (≈ 6.5 µM) | 4 (≈ 6.5 µM) | 4 (≈ 6.5 µM) | > 64 | > 64 | 2 (≈ 3.25 µM) | > 64
18 | Cc1nn(-c2ccccc2)c(Oc2ccccc2Cl)c1/C=C1\SC(=S)N([C@@H](Cc2ccc(O)cc2)C(=O)O)C1=O |  |  |  | > 32 | > 64 | > 64 |  | > 64
19 | Cc1nn(-c2ccccc2)c(Oc2ccc(Cl)cc2Cl)c1/C=C1\SC(=S)N([C@@H](Cc2ccc(O)cc2)C(=O)O)C1=O | 8 (≈ 12.8 µM) | 8 (≈ 12.8 µM) | 8 (≈ 12.8 µM) | 8 (≈ 12.8 µM) | > 64 | > 64 | 8 (≈ 12.8 µM) | > 64
20 | Cc1nn(-c2ccccc2)c(Oc2ccc(F)cc2)c1/C=C1\SC(=S)N([C@@H](Cc2ccc(O)cc2)C(=O)O)C1=O |  |  |  | > 32 | > 64 | > 64 |  | > 64
21 | COc1ccccc1Oc1c(/C=C2\SC(=S)N([C@@H](Cc3c[nH]c4ccccc34)C(=O)O)C2=O)c(C)nn1-c1ccccc1 | 8 (≈ 13.1 µM) | 8 (≈ 13.1 µM) | 8 (≈ 13.1 µM) | 16 (≈ 26.2 µM) | > 64 | > 64 | 8 (≈ 13.1 µM) | > 64
22 | Cc1nn(-c2ccccc2)c(Oc2ccc(Cl)cc2)c1/C=C1\SC(=S)N([C@@H](Cc2c[nH]c3ccccc23)C(=O)O)C1=O | 2 (≈ 3.25 µM) | 2 (≈ 3.25 µM) | 2 (≈ 3.25 µM) | 2 (≈ 3.25 µM) | > 64 | > 64 | 2 (≈ 3.25 µM) | > 64
23 | CCn1cc(C(=O)O)c(=O)c2cc(F)c(N3CCNCC3)cc21 [NORFLOXACIN] | > 64 | > 64 | 4 (≈ 12.5 µM) | 2 (≈ 6.26 µM) | > 16 | 2 (≈ 6.26 µM) | 8 (≈ 25.1 µM) | 2 (≈ 6.26 µM)
24 | Cc1onc(-c2ccccc2)c1C(=O)N[C@@H]1C(=O)N2[C@@H]1SC(C)(C)[C@@H]2C(=O)O [OXACILLIN] | 1 (≈ 2.49 µM) | 1 (≈ 2.49 µM) | > 64 | 1 (≈ 2.49 µM) | > 64 | 1 (≈ 2.49 µM) | > 64 | 1 (≈ 2.49 µM)
25 | COc1ccc(Oc2c(/C=C3\SC(=S)N([C@@H](Cc4ccc(O)cc4)C(=O)O)C3=O)c(C)nn2-c2ccccc2)cc1 |  |  |  | > 32 | > 64 | > 64 |  | > 64
26 | Cc1nn(-c2ccccc2)c(Oc2cccc(Cl)c2)c1/C=C1\SC(=S)N([C@@H](Cc2c[nH]c3ccccc23)C(=O)O)C1=O | 4 (≈ 6.5 µM) | 4 (≈ 6.5 µM) | 4 (≈ 6.5 µM) | 4 (≈ 6.5 µM) | > 64 | > 64 | 2 (≈ 3.25 µM) | > 64
27 | COc1ccc(Oc2c(/C=C3\SC(=S)N([C@@H](Cc4c[nH]c5ccccc45)C(=O)O)C3=O)c(C)nn2-c2ccccc2)cc1 | 8 (≈ 13.1 µM) | 8 (≈ 13.1 µM) | 4 (≈ 6.55 µM) | 8 (≈ 13.1 µM) | > 64 | > 64 | 4 (≈ 6.55 µM) | > 64
28 | Cc1nn(-c2ccccc2)c(Oc2c(Cl)cccc2Cl)c1/C=C1\SC(=S)N([C@@H](Cc2ccc(O)cc2)C(=O)O)C1=O | 16 (≈ 25.5 µM) | 16 (≈ 25.5 µM) | 8 (≈ 12.8 µM) | 16 (≈ 25.5 µM) | > 64 | > 64 | 8 (≈ 12.8 µM) | > 64
29 | Cc1ccccc1Oc1c(/C=C2\SC(=S)N([C@@H](Cc3c[nH]c4ccccc34)C(=O)O)C2=O)c(C)nn1-c1ccccc1 | 8 (≈ 13.5 µM) | 8 (≈ 13.5 µM) | 4 (≈ 6.73 µM) | 8 (≈ 13.5 µM) | > 64 | > 64 | 2 (≈ 3.36 µM) | > 64
30 | Cc1nn(-c2ccccc2)c(Oc2ccccc2)c1/C=C1\SC(=S)N([C@@H](Cc2ccc(O)cc2)C(=O)O)C1=O |  |  |  | > 32 | > 64 | > 64 |  | > 64
31 | Cc1nn(-c2ccccc2)c(Oc2ccc3ccccc3c2)c1/C=C1\SC(=S)N([C@@H](Cc2c[nH]c3ccccc23)C(=O)O)C1=O | 2 (≈ 3.17 µM) | 2 (≈ 3.17 µM) | 2 (≈ 3.17 µM) | 2 (≈ 3.17 µM) | > 64 | > 64 | 2 (≈ 3.17 µM) | > 64
